The source of these data is US5856503A, “Aminoalkyl-substituted benzo-heterocyclic compounds” (Hoffmann-La Roche Inc., priority 1995, dated 1999).

≈ marks a conversion by molar mass, not a printed value. Where two headings read alike, the source gives them in different places.

One test has as its system Candida albicans. The test can be described thus: Antifungal activity in vitro, C. albicans (microdilution). Conditions: 27° C. The class given is cell-based. On the procedure:
(§1) Antifungal activity in vitro The compounds were tested for antifungal activity against Candida albicans, Cryptococcus neoformans and Aspergillus fumigatus using a microdilution method on microtitre plates (96 wells per plate). Yeast supplemented with 1% glucose and 0.25% di-potassium phosphate was used for the three fungal strains. The fungal cells were inoculated at 3×10^4 CFU (Colony Forming Unit) in […] of medium per well. The medium contained increasing concentrations of test substance. After incubation at 27° C. for 24 or 48 hours the turbidity in each well was measured by a microtitre plate reader. The growth inhibition was calculated in comparison to (without test substance). The IC50 value given in the following Table is the concentration of test substance at which the growth is inhibited by 50%.
In general terms: Dilution methods test growth across graded concentrations, often in twofold steps.

For a further test, the system named is Cryptococcus neoformans. The test can be described thus: Antifungal activity in vitro, C. neoformans (microdilution). It is filed as cell-based. To be noted: 48 hours, 27° C., read-out: IC50 for C. neoformans after 48 hours (growth inhibition). On the procedure: as §1
A further test has as its system Aspergillus fumigatus. The test can be described thus: Antifungal activity in vitro, A. fumigatus (microdilution). The class given is cell-based. Conditions: 48 hours, 27° C., read-out: IC50 for A. fumigatus after 48 hours (growth inhibition). The procedure: as §1
Test [1] in a line: Cholesterol lowering in fat-fed hamsters. It is filed as in vivo, Male golden hamsters. To be noted: 200 μmol (about 70-120 mg/kg/day) in diet, 10 days. On the procedure: Cholesterol lowering in fat-fed hamsters
Male golden hamsters kept individually were pre-treated for 7 days with a diet containing grated coconut (40 cal. % fat). The animals were then divided into groups each comprising 5 animals. During the treatment the animals were maintained on the same diet. Each test substance was firstly homogenized in 9 ml of water and subsequently mixed with the milled diet. The controls received only feed converted into a paste with water. The animals were treated for 10 days with a test substance dosage of 200 μmol (about 70-120 mg/kg/day). Blood samples (200 μl) were removed via the jugular vein under light anaesthesia on the last day of the pretreatment and one day after the last administration of test substance. The plasma cholesterol concentration was determined using a colorimetric enzyme method. The plasma lipoproteins were separated by exclusion chromatography (Hennes et al., Science Tools, 36, 1992, 10-12). The total cholesterol was determined in each fraction using a fluorometric enzyme method (Gamble et al., J. Lipid Res., 19, 1978, 1068-1071) in order to calculate the amount of cholesterol in the LDL and HDL fractions. The activity on plasma cholesterol and LDL and HDL cholesterol, expressed in percent of the control animals, for the products of Examples 8a and 12 is reproduced in the following Table: […]

The target in test [2] is T1, human liver microsomal 2,3-oxidosqualene-lanosterol cyclase (OSC) (Homo sapiens, UniProt P48449).
T1 construct: Liver microsomes from a healthy volunteer were prepared in sodium phosphate buffer (pH 7.4); from tissue; host or cells: liver microsomes from a healthy human volunteer
T1 sequence (P48449 1-732): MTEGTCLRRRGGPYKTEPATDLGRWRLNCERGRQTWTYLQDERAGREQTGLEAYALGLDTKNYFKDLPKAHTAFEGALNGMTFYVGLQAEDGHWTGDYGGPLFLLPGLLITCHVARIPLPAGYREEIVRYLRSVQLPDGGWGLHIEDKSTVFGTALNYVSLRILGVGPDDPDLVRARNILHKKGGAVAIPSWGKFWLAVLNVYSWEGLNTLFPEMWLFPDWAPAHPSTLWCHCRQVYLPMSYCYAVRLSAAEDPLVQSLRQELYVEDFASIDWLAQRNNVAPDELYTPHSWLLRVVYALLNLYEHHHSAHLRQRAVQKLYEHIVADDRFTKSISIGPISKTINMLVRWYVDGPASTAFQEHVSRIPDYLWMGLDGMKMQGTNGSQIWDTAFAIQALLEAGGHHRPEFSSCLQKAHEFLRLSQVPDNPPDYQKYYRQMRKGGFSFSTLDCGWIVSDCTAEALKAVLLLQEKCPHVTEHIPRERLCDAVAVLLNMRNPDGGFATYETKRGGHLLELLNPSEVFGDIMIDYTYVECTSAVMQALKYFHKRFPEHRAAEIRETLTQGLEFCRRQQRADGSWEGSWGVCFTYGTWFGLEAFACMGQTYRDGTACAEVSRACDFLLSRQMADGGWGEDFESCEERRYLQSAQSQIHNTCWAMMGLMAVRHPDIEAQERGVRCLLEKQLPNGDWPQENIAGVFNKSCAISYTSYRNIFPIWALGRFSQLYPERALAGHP
The test can be described thus: Inhibition of human liver microsomal 2,3-oxidosqualene-lanosterol cyclase (OSC). To be noted: for inhibition at 0.1 µM: 100 nM test substance, 1 hour at 37° C., against controls; for IC50: pH 7.4, 1 hour at 37° C., read-out: IC50 (OSC, conversion of MOS into lanosterol). The class given is biochemical. The procedure:
Inhibition of human liver microsomal 2,3-oxidosqualene-lanosterol cyclase (OSC)
Liver microsomes from a healthy volunteer were prepared in sodium phosphate buffer (pH 7.4). The OSC activity was measured in the same buffer which also contained 1 mM EDTA and 1 mM dithiothreitol. The microsomes were diluted to 0.8 mg/ml protein in cold phosphate buffer. Dry [^14 C]R,S-monooxidosqualene (MOS; 12.8 μCi/mmol) was diluted to 20 nCi/μl with ethanol and mixed with phosphate buffer-1% BSA (Bovine Serum Albumin). A stock solution of 1 mM test substance in DMSO was diluted to the desired concentration with phosphate buffer-1% BSA. 40 μl of microsomes were mixed with 20 μl of the solution of the test substance and the reaction was subsequently started with 20 μl of the [^14 C]R,S-MOS solution. The final conditions were: 0.4 mg/ml of microsomal proteins and […] of [^14 C]R,S-MOS in phosphate buffer, pH 7.4, containing 0.5% albumin, DMSO <0.1% and ethanol <2%, in a total volume of 80 μl.
After 1 hour at 37° C. the reaction was stopped by the addition of 0.6 ml of 10% KOH-methanol, 0.7 ml of water and 0.1 ml of hexane:ether (1:1, v/v) which contained 25 μg of non-radioactive MOS and 25 μg of lanosterol as the carrier. After shaking 1 ml of hexane:ether (1:1, v/v) was added to each test tube, these were again shaken and then centrifuged. The upper phase was transferred into a glass test tube, the lower phase was again extracted with hexane:ether and combined with the first extract. The entire extract was evaporated to dryness with nitrogen, the residue was suspended in 50 μl of hexane:ether and applied to a silica gel plate. Chromatographic separation was effected in hexane:ether (1:1, v/v) as the eluent. […] After drying radioactive MOS and lanosterol were observed on the silica gel plate. The ratio of MOS to lanosterol was determined from the radioactive bands in order to determine the OSC inhibition.
The test was carried out on the one hand with a constant test substance concentration of 100 nM and the percentage OSC inhibition against controls was calculated. In addition, the test was carried out with different test substance concentrations and subsequently the IC50 value was calculated, i.e. the concentration required to reduce the conversion of MOS into lanosterol to 50% of the control value.
A general note: Liver microsomes are vesicles of endoplasmic reticulum, rich in cytochrome P450 enzymes.

Where [3] appears, read: 24 hrs., read-out: IC50 for C. albicans after 24 hrs. (growth inhibition).
[4] abbreviates: 48 hrs., read-out: IC50 for C. albicans after 48 hrs. (growth inhibition).

For the molecule `C=CCN(C)CCCCCCOc1ccc2c(c1)N=CNC2c1ccc(Br)cc1` (racemic) [Example 34, (RS)-Allyl-[6-[4-(4-bromo-phenyl)-3,4-dihydro-quinazolin-7-yloxy]-hexyl]-methyl-amine], the IC50 in the test with Candida albicans (setting [3]) is 1.6 µg/mL (≈ 3.51 µM); with Candida albicans (setting [4]), 6.5 µg/mL (≈ 14.2 µM); with Cryptococcus neoformans it was less than 0.32 µg/mL; in the test with Aspergillus fumigatus, 3.9 µg/mL (≈ 8.54 µM).

For the molecule `C=CCN(C)CCCCCCOc1ccc2c(-c3ccc(Br)cc3)nsc2c1` [Example 1, allyl-[6-[3-(4-bromo-phenyl)-benzo[d]isothiazol-6-yloxy]-hexyl]-methyl-amine], the “HDL cholesterol (plasma, percent of control animals)” value in test [1] is recorded as -27%. The “LDL cholesterol (plasma, percent of control animals)” value in test [1] was -36%. Further, the “Total cholesterol (plasma, percent of control animals)” value in test [1] is -33%. Moreover, the IC50 in the test with Candida albicans (setting [3]) was less than 0.32 µg/mL; in the test on Candida albicans (setting [4]) it was 3.6 µg/mL (≈ 7.84 µM); in the test with Cryptococcus neoformans, less than 0.32 µg/mL; with Aspergillus fumigatus it was 3.9 µg/mL (≈ 8.49 µM); in test [2], 3.3 nM. The same molecule came in with an inhibition at 0.1 µM in test [2] of 96%.

With `CN(CCCCCCOc1ccc2c(-c3ccc(Br)cc3)nccc2c1)C1CC1` [Example 24, [6-[1-(4-bromo-phenyl)-isoquinolin-6-yloxy]-hexyl]-cyclopropyl-methyl-amine], the IC50 is less than 0.32 µg/mL with Candida albicans (setting [3]); 1.4 µg/mL (≈ 3.09 µM) with Candida albicans (setting [4]); less than 0.32 µg/mL in the test with Cryptococcus neoformans; 1.9 µg/mL (≈ 4.19 µM) with Aspergillus fumigatus; 1.6 nM in test [2]. In addition, in test [2], 0.1 µM produced 98% inhibition.

With `C=CCN(C)CCCCCCOc1ccc2c(-c3ccc(Br)cc3)nncc2c1` [Example 29a, allyl-[6-[1-(4-bromo-phenyl)-phthalazin-6-yloxy]-hexyl]-methyl-amine], the IC50 with Candida albicans (setting [3]) was less than 0.32 µg/mL; with Candida albicans (setting [4]), 1.1 µg/mL (≈ 2.42 µM); in the test with Cryptococcus neoformans it was less than 0.32 µg/mL; in the test with Aspergillus fumigatus, 0.37 µg/mL (≈ 0.814 µM).

Broadly, the IC50 is the concentration that gives 50% inhibition. Usually inhibition stands for how much of the control response was suppressed.
